We go through four compounds from ChEMBL document CHEMBL1126509, “Trisnorsqualene methyl hydroxylamine: a potent dual inhibitor of mammalian squalene epoxidase and oxidosqualene cyclase” (Bioorg Med Chem Lett, 1993).

Some results are limits rather than exact numbers.

Test [1] is described as follows: Inhibitory concentration at which 50% decrease in the activity of Squalene epoxidase and Oxidosqualene cyclase in pig liver microsomes. Details: species or system Sus scrofa, Microsome; call rule not given here. On the technique in general: Liver microsomes are a subcellular fraction often used to study metabolism.
Test [2] is described as follows: Inhibitory concentration at which 50% decrease in the activity of Squalene epoxidase and Oxidosqualene cyclase in pig liver microsomes; NI means no inhibition. Details: species or system Sus scrofa, Microsome.
Test [3] can be described thus: Inhibitory concentration at which 50% decrease in the activity of Squalene epoxidase in pig liver microsomes; NI means no inhibition.

In the case of `CC(C)=CCC/C(C)=C/CC/C(C)=C/CC/C=C(\C)CC/C=C(\C)CC/C=C/[N+](=O)[O-]`, in test [1], the IC50 is above 400 µM.

For `CC(C)=CCC/C(C)=C/CC/C(C)=C/CC/C=C(\C)CC/C=C(\C)CCCN(C)O`, in test [1], the midpoint of inhibition, the IC50, lay at 5 µM.

Regarding `CC(C)=CCC/C(C)=C/CC/C(C)=C/CC/C=C(\C)CC/C=C(\C)CC/C=N/O`, the IC50 result in test [2] and in test [3] was “Not Active” in each case.

Consider `CC(C)=CCC/C(C)=C/CC/C(C)=C/CC/C=C(\C)CC/C=C(\C)CCC(O)C[N+](=O)[O-]` (stereo not given), for which it took 200 µM to reach half-maximal inhibition in test [1] (IC50).

The IC50 is the concentration needed to halve the response being measured. Low values mean inhibition by little substance, high ones a need for much substance.
